Measured values reported in patent US20230089073A1 (Carmot Therapeutics, Inc., priority 2021, published 2023).
pEC50: −log10 of the molar value.

molecular target: T1, human GLP-1 receptor (Homo sapiens, UniProt P43220); assay: GLP-1R cAMP Assay; type: cell-based; conditions: cAMP accumulation in CHO cells stably overexpressing the human GLP-1 receptor; 30 min treatment; HitHunter cAMP kit; read-out: EC50
T1 construct: expressed in transfected cells
Method in brief: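 CHO cells stably overexpressing human GLP-1R, 10,000 cells/well, treated with compound in 20-point dose response in triplicate for 30 min. cAMP accumulation read by enzyme-complementation luminescence after lysis and overnight incubation; dose-response curves fitted.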

T1 sequence (P43220 24-463): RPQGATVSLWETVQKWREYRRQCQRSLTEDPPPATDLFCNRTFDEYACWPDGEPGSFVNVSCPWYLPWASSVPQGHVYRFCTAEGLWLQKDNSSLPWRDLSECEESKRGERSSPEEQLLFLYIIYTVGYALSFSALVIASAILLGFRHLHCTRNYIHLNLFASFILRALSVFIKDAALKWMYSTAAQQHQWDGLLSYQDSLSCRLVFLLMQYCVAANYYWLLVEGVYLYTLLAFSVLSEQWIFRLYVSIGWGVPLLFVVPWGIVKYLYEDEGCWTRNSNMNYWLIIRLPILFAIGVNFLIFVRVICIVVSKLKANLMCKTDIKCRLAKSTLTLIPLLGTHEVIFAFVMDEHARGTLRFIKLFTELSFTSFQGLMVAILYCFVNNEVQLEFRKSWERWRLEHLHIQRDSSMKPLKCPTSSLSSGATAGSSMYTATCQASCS

Row | pEC50 | SMILES
1 | > 7.30 | O=C(O)c1ccc2nc(CN3CCC(Oc4ccnc(COc5ccc(C(F)(F)F)cc5F)c4)CC3)n(C[C@@H]3CCO3)c2c1 [Compound 356]
2 | > 7.30 | CCn1cncc1Cn1c(CN2CCC(Cc3cc(COc4ccc(Cl)cc4Cl)ccc3F)CC2)nc2ccc(C(=O)O)cc21 [Compound 137, 2-{[4-({5-[(2,4-dichlorophenoxy)methyl]-2-fluorophenyl}methyl)piperidin-1-yl]methyl}-1-[(1-ethyl-1H-imidazol-5-yl)methyl]-1H-1,3-benzodiazole-6-carboxylic acid]
3 | > 7.30 | CCn1cncc1Cn1c(CN2CCN(C(=O)c3ccc(COc4ccc(C)cc4C)o3)CC2)nc2ccc(C(=O)O)cc21 [Compound 55, 2-[(4-{5-[(2,4-dimethylphenoxy)methyl]furan-2-carbonyl}piperazin-1-yl)methyl]-1-[(1-ethyl-1H-imidazol-5-yl)methyl]-1H-1,3-benzodiazole-6-carboxylic acid]
4 | > 7.30 | N#Cc1ccc(OCc2cc(OC3CCN(Cc4nc5c(F)cc(C(=O)O)cc5n4C[C@@H]4CCO4)CC3)ccn2)c(F)c1 [Compound 365]
5 | > 7.30 | N#Cc1cc(Cl)ccc1OCc1cccc(CC2CCN(Cc3nc4ccc(C(=O)O)cc4n3Cc3ncco3)CC2)c1 [Compound 159, 2-{[4-({3-[(4-chloro-2-cyanophenoxy)methyl]phenyl}methyl)piperidin-1-yl]methyl}-1-[(1,3-oxazol-2-yl)methyl]-1H-1,3-benzodiazole-6-carboxylic acid]
6 | > 7.30 | N#Cc1ccc(OCc2cc(OC3CCN(Cc4nc5ccc(C(=O)O)nc5n4C[C@@H]4CCO4)CC3)ccn2)c(F)c1 [Compound 379]
7 | > 7.30 | COCCn1c(CN2CCC(Oc3ccnc(COc4ccc(Cl)cc4F)c3)CC2)nc2c(F)cc(C(=O)O)cc21 [Compound 344]
8 | > 7.30 | O=C(O)c1cc(F)c2nc(CN3CCC(Oc4ccnc(COc5ccc(F)cc5F)n4)CC3)n(C[C@@H]3CCO3)c2c1 [Compound 482, 2-{[4-({2-[(2,4-difluorophenoxy)methyl]pyrimidin-4-yl}oxy)piperidin-1-yl]methyl}-4-fluoro-1-{[(2S)-oxetan-2-yl]methyl}-1H-1,3-benzodiazole-6-carboxylic acid]
9 | > 7.30 | N#CCC1(Cn2c(CN3CCC(Oc4ccnc(COc5ccc(F)cc5C#N)n4)CC3)nc3ccc(C(=O)O)cc32)CC1 [Compound 348]
10 | < 6.30 | Cc1ccc(N(C)c2ccnc(C(=O)N3CCN(Cc4nc5ccc(C(=O)O)cc5n4C[C@@H]4CCO4)CC3)c2)c(Cl)c1 [Compound 88, 2-[(4-{4-[(2-chloro-4-methylphenyl)(methyl)amino]pyridine-2-carbonyl}piperazin-1-yl)methyl]-1-{[(2S)-oxetan-2-yl]methyl}-1H-1,3-benzodiazole-6-carboxylic acid]
11 | > 7.30 | O=C(O)c1ccc2nc(CN3CCC(Oc4cccc(COc5cccc(Cl)c5Cl)c4)CC3)n(C[C@@H]3CCO3)c2c1 [Compound 243, 2-[(4-{3-[(2,3-dichlorophenoxy)methyl]phenoxy}piperidin-1-yl)methyl]-1-{[(2S)-oxetan-2-yl]methyl}-1H-1,3-benzodiazole-6-carboxylic acid]
12 | > 7.30 | N#Cc1ccc(OCc2ccc(F)c(OC3CCN(Cc4nc5ccc(C(=O)O)cc5n4C[C@@H]4CCO4)CC3)n2)c(F)c1 [Example 330, (S)-2-((4-((6-((4-Cyano-2-fluorophenoxy)methyl)-3-fluoropyridin-2-yl)oxy)piperidin-1-yl)methyl)-1-(oxetan-2-ylmethyl)-1H-benzo[d]imidazole-6-carboxylic acid]
13 | < 6.30 | O=C(O)c1ccc2nc(CN3CCN(C(=O)c4cccc(Oc5ccc(F)cc5)c4)CC3)n(C[C@@H]3CCO3)c2c1 [Compound 13, 2-({4-[3-(4-fluorophenoxy)benzoyl]piperazin-1-yl}methyl)-1-{[(2S)-oxetan-2-yl]methyl}-1H-1,3-benzodiazole-6-carboxylic acid]
14 | > 7.30 | Cn1cncc1Cn1c(CN2CCC(Oc3cccc(COc4ccc(Cl)cc4Cl)c3)CC2)nc2ccc(C(=O)O)cc21 [Compound 255, 2-[(4-{3-[(2,4-dichlorophenoxy)methyl]phenoxy}piperidin-1-yl)methyl]-1-[(1-methyl-1H-imidazol-5-yl)methyl]-1H-1,3-benzodiazole-6-carboxylic acid]
15 | > 7.30 | N#CCC1(Cn2c(CN3CCC(Oc4ccnc(COc5ccc(Cl)cc5Cl)n4)CC3)nc3c(F)cc(C(=O)O)cc32)CC1 [Compound 341]
16 | > 7.30 | O=C(O)c1ccc2nc(CN3CCC(Oc4ccnc(COc5ccc(Cl)cc5Cl)n4)CC3)n(C[C@@H]3CCO3)c2c1 [Example 304, (S)-2-((4-((2-((2,4-Dichlorophenoxy)methyl)pyrimidin-4-yl)oxy)piperidin-1-yl)methyl)-1-(oxetan-2-ylmethyl)-1H-benzo[d]imidazole-6-carboxylic acid]

The next lines start with the compound.

Row | SMILES | pEC50
17 | Cc1ccc(N(C)c2ccc(F)c(C(=O)N3CCN(Cc4nc5ccc(C(=O)O)cc5n4C[C@@H]4CCO4)CC3)c2)c(Cl)c1 [Compound 98, 2-[(4-{5-[(2-chloro-4-methylphenyl)(methyl)amino]-2-fluorobenzoyl}piperazin-1-yl)methyl]-1-{[(2S)-oxetan-2-yl]methyl}-1H-1,3-benzodiazole-6-carboxylic acid] | > 7.30
18 | C[C@H]1C[C@@H](Oc2ccnc(COc3ccc(C4CC4)cc3C#N)n2)CCN1Cc1nc2ccc(C(=O)O)cc2n1C[C@@H]1CCO1 [Compound 510, 2-(((2S,4S)-4-((2-((2-cyano-4-cyclopropylphenoxy)methyl)pyrimidin-4-yl)oxy)-2-methylpiperidin-1-yl)methyl)-1-(((S)-oxetan-2-yl)methyl)-1H-benzo[d]imidazole-6-carboxylic acid] | > 7.30
19 | O=C(O)c1ccc2nc(CN3CCC(Cc4cccc(COc5ccc(Cl)cc5Cl)c4)CC3)n(Cc3ncco3)c2c1 [Compound 149, 2-{[4-({3-[(2,4-dichlorophenoxy)methyl]phenyl}methyl)piperidin-1-yl]methyl}-1-[(1,3-oxazol-2-yl)methyl]-1H-1,3-benzodiazole-6-carboxylic acid] | > 7.30
20 | CCn1cncc1Cn1c(CN2CCC(=Cc3ccnc(COc4ccc(Cl)cc4Cl)c3)CC2)nc2ccc(C(=O)O)cc21 [Example 155, 2-((4-((2-((2,4-Dichlorophenoxy)methyl)pyridin-4-yl)methylene)piperidin-1-yl)methyl)-1-((1-ethyl-1H-imidazol-5-yl)methyl)-1H-benzo[d]imidazole-6-carboxylic acid] | > 7.30
21 | Cc1ccc(Cc2cccc(C(=O)N3CCN(Cc4nc5ccc(C(=O)O)cc5n4C[C@@H]4CCO4)CC3)c2)c(Cl)c1 [Example 32, (S)-2-((4-(3-(2-Chloro-4-methylbenzyl)benzoyl)piperazin-1-yl)methyl)-1-(oxetan-2-ylmethyl)-1H-benzo[d]imidazole-6-carboxylic acid] | 6.30 to 7.30
22 | Cc1cccc(Oc2ccc(C(=O)N3CCN(Cc4nc5ccc(C(=O)O)cc5n4C[C@@H]4CCO4)CC3)cc2)c1 [Compound 21, 2-({4-[4-(3-methylphenoxy)benzoyl]piperazin-1-yl}methyl)-1-{[(2S)-oxetan-2-yl]methyl}-1H-1,3-benzodiazole-6-carboxylic acid] | < 6.30
23 | O=C(O)c1cc(F)c2nc(CN3CCC(Oc4ccnc(COc5ccc(C(F)F)cc5F)n4)CC3)n(C[C@@H]3CCO3)c2c1 [Compound 312, 2-({4-[(2-{[4-(difluoromethyl)-2-fluorophenoxy]methyl}pyrimidin-4-yl)oxy]piperidin;-1-yl}methyl)-1-{[(2S)-oxetan-2-yl]methyl}-1H-1,3-benzodiazole-6-carboxylic acid] | > 7.30
24 | N#Cc1cc(F)ccc1OCc1cccc(OC2CCN(Cc3nc4c(F)cc(C(=O)O)cc4n3C[C@@H]3CCO3)CC2)c1 [Compound 317] | > 7.30
25 | CCn1cncc1Cn1c(CN2CCC([C@@H](F)c3cccc(COc4ccc(Cl)cc4Cl)c3)CC2)nc2ccc(C(=O)O)cc21 (single isomer, unassigned) [Compound 203] | > 7.30
26 | N#Cc1cc(Cl)ccc1OCc1cccc(CC2CCN(Cc3nc4ccc(C(=O)O)cc4n3C[C@@H]3CCO3)CC2)c1 [Compound 166, 2-{[4-({3-[(4-chloro-2-cyanophenoxy)methyl]phenyl}methyl)piperidin-1-yl]methyl}-1-{[(2S)-oxetan-2-yl]methyl}-1H-1,3-benzodiazole-6-carboxylic acid] | > 7.30
27 | CCn1cncc1Cn1c(CN2CCC(Oc3ccnc(COc4ccc(Cl)cc4CO)c3)CC2)nc2ccc(C(=O)O)cc21 [Compound 287, 2-({4-[(2-{[4-chloro-2-(hydroxymethyl)phenoxy]methyl}pyridin-4-yl)oxy]piperidin-1-yl}methyl)-1-[(1-ethyl-1H-imidazol-5-yl)methyl]-1H-1,3-benzodiazole-6-carboxylic acid] | > 7.30
28 | N#Cc1ccc(COc2cccc(C(=O)N3CCN(Cc4nc5ccc(C(=O)O)cc5n4C[C@@H]4CCO4)CC3)c2)c(F)c1 [Compound 66, 2-[(4-{3-[(4-cyano-2-fluorophenyl)methoxy]benzoyl}piperazin-1-yl)methyl]-1-{[(2S)-oxetan-2-yl]methyl}-1H-1,3-benzodiazole-6-carboxylic acid] | < 6.30
29 | O=C(O)c1ccc2nc(CN3CCC(Oc4ccnc(COc5ccc(Cl)cc5F)c4)CC3)n(Cc3ncco3)c2c1 [Compound 258, 2-{[4-({2-[(4-chloro-2-fluorophenoxy)methyl]pyridin-4-yl}oxy)piperidin-1-yl]methyl}-1-[(1,3-oxazol-2-yl)methyl]-1H-1,3-benzodiazole-6-carboxylic acid] | > 7.30
30 | O=C(O)c1ccc2nc(CN3CCN(Cc4cc5ccc(-c6ccc(Cl)cc6Cl)cc5o4)CC3)n(C[C@@H]3CCO3)c2c1 [Example 27, (S)-2-((4-((6-(2,4-Dichlorophenyl)benzofuran-2-yl)methyl)piperazin-1-yl)methyl)-1-(oxetan-2-ylmethyl)-1H-benzo[d]imidazole-6-carboxylic acid] | < 6.30
